Reference: patent publication US20110230501A1, “PHARMACEUTICAL COMPOSITIONS FOR THE TREATMENT OF DIABETES MELLITUS” (IPCA Laboratories Ltd., priority 2008, published 2011)
Marks after values point to notes of the source that are not given here.

How the values were obtained:
[1] = system: alloxan induced diabetic rats; experiment: Alloxan induced diabetic rats: hydroxychloroquine with glimepiride; format: in vivo, Wistar rats; settings: nine days, HCQ 160 or GLM 8 mg/kg/day p.o.
Description: (§1) Thirty Wistar rats weighing 150-200 g of either sex were divided into six groups consisting of five rats each. Experimental diabetes was induced in rats by injecting alloxan monohydrate intraperitonially at a dose of 90 mg/kg body weight. Rats with blood sugar level of 250-350 mg/dl, were considered as diabetic and employed in the study. Group 1 (normal control) consisted of normal rats that neither received alloxan monohydrate nor any drug. Group 2′ served as diabetic control which received vehicle orally. […] The study drugs were administered for nine days.

[2] = system: alloxan induced diabetic rats; experiment: Alloxan induced diabetic rats: hydroxychloroquine with metformin; format: in vivo, Wistar rats; settings: nine days, HCQ 160 or MET 500 mg/kg/day p.o.
Description: as §1, with “2” for “2′”

[3] = system: alloxan induced diabetic rats; experiment: Alloxan induced diabetic rats: hydroxychloroquine with pioglitazone; format: in vivo, Wistar rats; settings: nine days, HCQ 160 or PIO 10 mg/kg/day p.o.
Description: as §1, with “2” for “2′”

[4] = system: sulphonylurea-refractory patients with poorly controlled Type 2 diabetes; settings: cited from earlier work
[5] = system: adults with rheumatoid arthritis; settings: cited from earlier work
[6] = cited from earlier work
[7] = cited from earlier work; remark: listed apart in the source
[8] = patients treated with hydroxychloroquine

SMILES	Blood Glucose (mg/dl) Final [1]	Body Weight (g) Final [1]	Alb. (Albumin) [1]	Blood Glucose (% mean change) [1]	Body Weight (% mean change) [1]	HDL (High Density Lipoprotein) [1]	Hb (Hemoglobin) [1]	TC (Total Cholesterol) [1]	TG (Triglyceride) [1]	Urea [1]	Blood Glucose (mg/dl) Final [2]	Body Weight (g) Final [2]	Alb. (Albumin) [2]	Blood Glucose (% mean change) [2]	Body Weight (% mean change) [2]	HDL (High Density Lipoprotein) [2]	Hb (Hemoglobin) [2]	TC (Total Cholesterol) [2]	TG (Triglyceride) [2]	Urea [2]	also measured
CCC1=C(C)CN(C(=O)NCCc2ccc(S(=O)(=O)NC(=O)N[C@H]3CC[C@H](C)CC3)cc2)C1=O [GLM, glimepiride]	157.2 ± 17.64 mg/dL	170 ± 11.22 g	3.99 ± 0.24^a g/dl	(−46.83)^d %	(−3.40)^c %	33 ± 1.58^b mg/dl	14.04 ± 1.90^b g/dl	169.40 ± 7.05^b mg/dl	113.40 ± 3.64^b mg/dl	30.26 ± 0.86^b mg/dl	–	–	–	–	–	–	–	–	–	–	Protein (T) (Total Protein) [1]: 5.78 ± 1.22^b g/dl
CCN(CCO)CCCC(C)Nc1ccnc2cc(Cl)ccc12 (centres unmarked) [HCQ, hydroxychloroquine]	263.80 ± 2.04 mg/dL	151.60 ± 13.16 g	4.03 ± 0.13^a g/dl	(−10.81)^c %	(−10.51)^b %	35.80 ± 2.28^b mg/dl	12.12 ± 1.27^a g/dl	178.40 ± 2.70^c mg/dl	117.20 ± 2.28^b mg/dl	29.70 ± 1.37^b mg/dl	263.80 ± 2.04 mg/dL	151.60 ± 13.16 g	4.03 ± 0.13^a g/dl	(−10.81)^c %	(−10.51)^b %	35.80 ± 2.28^b mg/dl	12.12 ± 1.27^a g/dl	178.40 ± 2.70^c mg/dl	117.20 ± 2.28^b mg/dl	29.70 ± 1.37^b mg/dl	Blood Glucose (% mean change) ([1]; listed as hydroxychloroquine): −10.81%; Blood Glucose (% mean change) ([2]; listed as hydroxychloroquine): −10.81%; Blood Glucose (mg/dl) Final [3]: 263.80 ± 2.04 mg/dL; Body Weight (g) Final [3]: 151.60 ± 13.16 g; Alb. (Albumin) [3]: 4.03 ± 0.13^a g/dl; Blood Glucose (% mean change) [3]: (−10.81)^c %; Body Weight (% mean change) [3]: (−10.51)^b %; HDL (High Density Lipoprotein) [3]: 35.80 ± 2.28^b mg/dl; Hb (Hemoglobin) [3]: 12.12 ± 1.27^a g/dl; TC (Total Cholesterol) [3]: 178.40 ± 2.70^c mg/dl; TG (Triglyceride) [3]: 117.20 ± 2.28^b mg/dl; Urea [3]: 29.70 ± 1.37^b mg/dl; Blood Glucose (% mean change) ([3]; listed as hydroxychloroquine): −10.81%; glycemic control [4]: improved glycemic control; risk of diabetes [5]: reduced risk of diabetes; serum levels of cholesterol, triglycerides, and LDL ([6]; irrespective of concomitant steroid administration): high statistical association with low serum levels; HDL and % HDL [6, 8]: rise; decrease in serum levels of cholesterol [6, 8]: approximately 10%; red blood cell aggregation ([7]; humans, without prolonging the bleeding time): reduction; plasma viscosity as well as whole blood viscosity ([7]; postoperative patients): significant reduction
CN(C)C(=N)N=C(N)N [MET, metformin]	–	–	–	–	–	–	–	–	–	–	148.8 ± 17.35 mg/dL	173.8 ± 7.19 g	4.52 ± 1.12^a g/dl	(−47.58)^d %	(−10.51) c %	34.40 ± 2.51^b mg/dl	12.80 ± 1.25^b g/dl	170.40 ± 5.90^b mg/dl	111.20 ± 5.93^b mg/dl	31.49 ± 1.81^b mg/dl	Protein (T) (Total Protein) [2]: 6.75 ± 0.80^b g/dl; Blood Glucose (% mean change) ([2]; listed as Metformin): 47.58%
CCc1ccc(CCOc2ccc(CC3SC(=O)NC3=O)cc2)nc1 (centres unmarked) [PIO, pioglitazone]	–	–	–	–	–	–	–	–	–	–	–	–	–	–	–	–	–	–	–	–	Blood Glucose (mg/dl) Final [3]: 175.8 ± 5.48 mg/dL; Body Weight (g) Final [3]: 159.20 ± 11.21 g; Alb. (Albumin) [3]: 4.03 ± 0.14^a g/dl; Blood Glucose (% mean change) [3]: (−41.92)^a %; Body Weight (% mean change) [3]: (−6.07)^a %; HDL (High Density Lipoprotein) [3]: 35.8 ± 2.28^b mg/dl; Hb (Hemoglobin) [3]: 12.12 ± 1.27^b g/dl; Protein (T) (Total Protein) [3]: 6.06 ± 1.43^b g/dl; TC (Total Cholesterol) [3]: 178.4 ± 2.70^b mg/dl; TG (Triglyceride) [3]: 117.2 ± 2.28^b mg/dl; Urea [3]: 29.69 ± 1.37^b mg/dl
